The values below come from patent US12156912B2, “Methods and compositions for inhibiting diseases of the central nervous system” (Board of Regents of the University of Nebraska, priority 2012, dated 2024).

Square brackets hold non-standard residues; d marks the D form. Ends that are not written are not given here. Tyr(3-NO2) = N[C@@H](Cc1ccc(O)c([N+](=O)[O-])c1)C(=O)O

This experiment concerns splenocytes of mice immunized with N-4YSyn. Description: 3H-thymidine in vitro proliferation assay of splenocytes stimulated with antigen or test peptide. The class given is cell-based, mice (C57BL/6J). Particulars: splenocytes from N-4YSyn/CFA immunized mice; 30 μg/ml antigen or peptide, 5 days; vs media control; no response in PBS immunized mice. On the procedure: B6 (H-2^b) mice were immunized with PBS or 50 μg of N-4YSyn (nitrated C-terminal 40 amino acid α-Syn fragment) in complete Freund's adjuvant (CFA) administered subcutaneously (s.c.). Seven days after primary immunization, mice were boosted with another 50 μg of antigen emulsified in IFA (Sigma-Aldrich). Seven days following their final immunizations, donor mice were sacrificed and single cell suspensions were prepared from the spleen.
Samples of pooled splenocytes were tested for their proliferative capacity by ^3H-thymidine incorporation after stimulation with either immunizing antigen or test peptide. Splenocytes were plated at a density of 2×10^6 cells/ml complete RPMI tissue culture media (RPMI 1640 supplemented with 10% fetal bovine serum (FBS), 2 mM L-glutamine, 10 mM HEPES, 1 mM sodium pyruvate, 1× nonessential aa, 55 μM 2-mercaptoethanol, 100 U/ml penicillin, and 100 μg/ml streptomycin (Mediatech Inc., Herndon, VA)). Splenocytes from PBS or N-4YSyn immunized mice were stimulated with 0 or 30 μg/ml of immunizing antigen N-4YSyn or 30 μg/ml of the non-nitrated or nitrated peptide indicated, and cultured at 37° C. for 5 days. Cells were pulsed with […] ^3H-thymidine/well for the final 18 hours of culture, harvested onto glass fiber plates, and counted by β-scintillation spectrometry (TopCount, Packard-PerkinElmer Instruments, Wellesley, MA).
To test immune responses to particular epitopes within N-α-Syn, mice were immunized with N-4YSyn or PBS emulsified in complete Freund's adjuvant (CFA). Seven days following the initial immunization, mice were boosted with their respective immunogens emulsified in incomplete Freund's adjuvant (IFA). Seven days later, mice were sacrificed and splencoytes were tested for antigen-specific T cell proliferative responses to N-4YSyn or peptide epitope (nitrated or non-nitrated; Table 1).
For “MPVDPGSEAYEMPSE (MPVDPGSEA[Tyr(3-NO2)]EMPSE; listed as Mus musculus) [Peptide 24, murine α-synuclein positions 116-130, nitrated tyrosine]”, the “proliferative response (3H-thymidine incorporation)” value is reported as “significant proliferative response”. The result for “GILEDMPVDPGSEAY (GILEDMPVDPGSEA[Tyr(3-NO2)]; listed as Mus musculus) [Peptide 23, murine α-synuclein positions 111-125, nitrated tyrosine]” reads “significant proliferative response”. The result for “GYPQEGILEDMPVDP (G[Tyr(3-NO2)]PQEGILEDMPVDP; listed as Mus musculus) [Peptide 22, murine α-synuclein positions 106-120, nitrated tyrosine]” reads “significant proliferative response”; that for “GSEAYEMPSEEGYQD (GSEA[Tyr(3-NO2)]EMPSEEG[Tyr(3-NO2)]QD; listed as Mus musculus) [Peptide 25, murine α-synuclein positions 121-135, nitrated tyrosines]”, “significant proliferative response”.
